{"source": "patent US9334265B2", "about": "“3-amino-pyrazole derivatives useful against tuberculosis” (GLAXO GROUP LIMITED, priority 2010, dated 2016)", "key": {"[1]": {"system": "Mycobacterium tuberculosis H37Rv", "assay": "Mycobacterium tuberculosis H37Rv Inhibition Assay (Whole Cell Assay)", "assay_type": "cell-based", "conditions": "ATCC 25618 / H37Rv, H37Rv strain (ATCC25618), Middlebrook 7H9, six days at 37° C., resazurin fluorescence after 48 hours"}, "[2]": {"target": "T1, InhA (Mycobacterium tuberculosis, UniProt P9WGR1)", "T1 construct": "made in house; host or cells: E. coli", "T1 sequence (P9WGR1 whole entry, looked up)": "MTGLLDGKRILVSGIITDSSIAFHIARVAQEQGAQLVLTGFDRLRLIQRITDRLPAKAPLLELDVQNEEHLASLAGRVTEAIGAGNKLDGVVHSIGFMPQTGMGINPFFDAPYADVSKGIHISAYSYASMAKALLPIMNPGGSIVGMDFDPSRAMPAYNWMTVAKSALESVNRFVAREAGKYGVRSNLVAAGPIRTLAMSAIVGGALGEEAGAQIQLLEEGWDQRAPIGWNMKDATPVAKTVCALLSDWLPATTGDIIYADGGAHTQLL", "assay": "Mycobacterium tuberculosis InhA Inhibition Assay (Enzyme Assay)", "assay_type": "biochemical", "conditions": "5 nM InhA, 50 μM DDCoA, 50 μM NADH, PIPES buffer pH 6.8, initial velocities of NADH consumption", "experimental": "InhA is able to reduce 2-trans enoyl-CoA esters with concomitant oxidation of NADH to NAD^+. The assay format is based on the kinetic detection of NADH consumption.\nAssay for InhA inhibition is carried out with mycobacterium recombinant protein expressed and purified form E. coli. Standard assay conditions for the determination of kinetic constants and inhibitors activity use 5 nM of InhA, 50 μM of Dodecenoyl-CoA synthesized and purified as described by Quémard et al (DDCoA) and 50 μM of NADH as substrates, and it is carried out in 30 mM PIPES buffer pH 6.8, containing 0.05% of BSA. […] Triclosan is used as positive control in every experiment. One μl of compounds is added to the wells containing 25 μl of the DDCoA+NADH mix, the reaction is started by adding 50 μl of the enzyme solution. Fluorescence from NADH is followed at room temperature during 20 minutes in a fluorescent plate reader (excitation at 340 nm; emission at 480 nm). IC50 values are determined using initial velocities of NADH consumption. • Quémard A, Sacchettini J C, Dessen A, et al. Enzymatic characterization of the target for isoniazid in Mycobacterium tuberculosis. Biochemistry 1995; 34:8235-41. Results of the Mycobacterium tuberculosis InhA Inhibition Assay (Enzyme Assay)"}}, "note": "Where two headings read alike, the source gives them in different places."}
{"smiles": "Cc1cc(C)n(C(C)c2nnc(Nc3ccn(Cc4nccc(C)c4F)n3)s2)n1", "note": "(stereo not drawn) [Example 2, 5-[1-(3,5-dimethyl-1H-pyrazol-1-yl)ethyl]-N-{1-[(3-fluoro-4-methyl-2-pyridinyl)methyl]-1H-pyrazol-3-yl}-1,3,4-thiadiazol-2-amine]", "values": [{"measurement": "MIC", "setting": "[1]", "result": "≤ 4", "unit": "µM"}, {"measurement": "IC50", "setting": "[2]; read-out: IC50 value", "result": "≤ 121", "unit": "nM"}]}
{"smiles": "Cc1ccn([C@H](C)c2nnc(Nc3ccn(Cc4ncccc4F)n3)s2)n1", "note": "(single isomer, unassigned) [Example 39]", "values": [{"measurement": "MIC", "setting": "[1]", "result": "> 10", "unit": "µM"}, {"measurement": "IC50", "setting": "[2]; IC50 value", "result": "260 to 1300", "unit": "nM"}]}
{"smiles": "Cc1csc(C(C)(O)c2nnc(Nc3ccn(Cc4nccc5ccccc45)n3)s2)n1", "note": "(stereo not drawn) [Example 19, 1-(5-{[1-(1-isoquinolinylmethyl)-1H-pyrazol-3-yl]amino}-1,3,4-thiadiazol-2-yl)-1-(4-methyl-1,3-thiazol-2-yl)ethanol]", "values": [{"measurement": "MIC", "setting": "[1]", "result": "4 to 10", "unit": "µM"}, {"measurement": "IC50", "setting": "[2]; read-out: IC50 value", "result": "≤ 111", "unit": "nM"}]}
{"smiles": "Cc1cc(C)n(C(C)c2nnc(Nc3ccn(Cc4ncc(Cl)cc4Cl)n3)s2)n1", "note": "(stereo not drawn) [Example 9, N-{1-[(3,5-dichloro-2-pyridinyl)methyl]-1H-pyrazol-3-yl}-5-[1-(3,5-dimethyl-1H-pyrazol-1-yl)ethyl]-1,3,4-thiadiazol-2-amine]", "values": [{"measurement": "MIC", "setting": "[1]", "result": "> 10", "unit": "µM"}, {"measurement": "IC50", "setting": "[2]; read-out: IC50 value", "result": "≤ 111", "unit": "nM"}]}
{"smiles": "Cc1cc(C)n(C(C)c2nnc(Nc3ccn(Cc4cccnc4F)n3)s2)n1", "note": "(stereo not drawn) [Example 7, 5-[1-(3,5-dimethyl-1H-pyrazol-1-yl)ethyl]-N-{1-[(2-fluoro-3-pyridinyl)methyl]-1H-pyrazol-3-yl}-1,3,4-thiadiazol-2-amine]", "values": [{"measurement": "MIC", "setting": "[1]", "result": "4 to 10", "unit": "µM"}, {"measurement": "IC50", "setting": "[2]; read-out: IC50 value", "result": "≤ 125", "unit": "nM"}]}
{"smiles": "Cc1csc(C(C)(O)c2nnc(Nc3ccn(Cc4ncc(F)cc4F)n3)s2)n1", "note": "(stereo not drawn) [Example 12, 1-[5-({1-[(3,5-difluoro-2-pyridinyl)methyl]-1H-pyrazol-3-yl}amino)-1,3,4-thiadiazol-2-yl]-1-(4-methyl-1,3-thiazol-2-yl)ethanol]", "values": [{"measurement": "MIC", "setting": "[1]", "result": "≤ 4", "unit": "µM"}, {"measurement": "IC50", "setting": "[2]; IC50 value", "result": "115 to 230", "unit": "nM"}]}
